Measurements from paper PMC11920646 (Frontiers in Pharmacology, 2025).
Several values for one entry are separate records, joined by “and”; a condition that tells them apart may be missing. Equal values may be shown once.

Legend:
human GR = target: T1, human GR (Homo sapiens, UniProt P04150); experiment: GR reporter gene (transactivation) assay, CHO-Gal4/GR; assay type: cell-based; settings: % of reference agonist beclomethasone
T1 construct: host or cells: CHO (DSMZ ACC-110), CHO-Gal4/GR
T1 sequence (P04150 524-758 limits assumed): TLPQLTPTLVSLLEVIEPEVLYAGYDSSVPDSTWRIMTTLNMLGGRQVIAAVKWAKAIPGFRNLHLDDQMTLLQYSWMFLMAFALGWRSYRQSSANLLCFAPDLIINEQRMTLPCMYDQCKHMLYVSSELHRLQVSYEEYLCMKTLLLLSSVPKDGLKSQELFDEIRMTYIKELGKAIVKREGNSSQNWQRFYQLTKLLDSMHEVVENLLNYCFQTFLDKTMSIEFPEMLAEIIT
Excerpt: To create the CHO-Gal4/GR, CHO-Gal4/PR, and CHO-Gal4/MR reporter cell lines, first CHO cells were stably transfected with a GAL4-UAS-luciferase reporter construct. Then, the LBD of the GR, PR, or MR (GR Gene ID: 2908, PR Gene ID: 5241, MR Gene ID: 4306, respectively) was cloned into pIRES2-EGFP-GAL4 containing the DBD of GAL4 from pFA-AT2, and then co-transfected into the luciferase-reporter construct-containing CHO cells. These reporter cell lines express the respective nuclear hormone receptor LBD-DBD fusion proteins that control luciferase expression of a GAL4-upstream activation sequence (UAS)-luciferase reporter construct, allowing for detection of ligand- or compound-induced transactivation at the GR, PR, or MR by measuring luciferase activity.
Cryo-preserved CHO-Gal4/GR, CHO-Gal4/PR, and CHO-Gal4/MR cells were plated in medium at 7,500 cells/well in 384-well assay plates (25 μL/well), and incubated for 24 h. […] Following a 4-h incubation, cells were lysed and luminescence measured using the EMCCD camera FLIPR®Tetra (Molecular Devices, Silicon Valley, CA, United States).
Transactivation (i.e., gene activation) was expressed as a percentage of the reference agonist activity (Supplementary Material), using Genedata Screener® v15.0.5 software (Basel, Switzerland).
Transactivation was calculated according to this equation: […]

[1] = system: OPG release in human osteoblast cell line MG-63; experiment: Inhibition of OPG release in MG-63 osteoblast cells; assay type: cell-based; settings: MG-63 cells, 24 h
Experimental: ([Humphrey et al., 2006]). […] After a 24-h incubation in standard conditions, supernatant was collected and OPG measured using the human osteoprotegerin/TNFRSF11B DuoSet® ELISA (R&D Systems, Minneapolis, MN, United States), according to the manufacturer’s instructions (Supplementary Material). A 3-parameter nonlinear regression was performed using GraphPad PRISM v7.03 software (Graphpad Software Inc.) to determine IC50 values.
All incubations in this assay were conducted at room temperature. Anti-OPG capture antibodies, diluted in Dulbecco's phosphate-buffered saline (DPBS), were transferred into a coated 96-well plate (100 µL/well). After overnight incubation, and triplicate washing (400 µL/well) with wash buffer (0.05% Tween 20 in DPBS, pH 7.2–7.4), 300 µL of Reagent Diluent (1% bovine serum albumin [BSA] in DPBS) was added, followed by a 1-h incubation, and thereafter three washing steps again. Then, 100 µL of supernatant, standard or reagent diluent were added per well for a 2-h incubation. After repeating three washing steps, 100 µL of detection antibody diluted in reagent diluent (including normal goat serum) were added to each well, followed by a 2-h incubation. After repeating three washing steps, 100 µL of Streptavidin conjugated to horseradish-peroxidase solution was added per well for a 20-min incubation. Finally, 50 µL/well of stop solution was added. After gently shaking of the plate to ensure thorough mixing, the optical density of each well was determined immediately using the Eon™ Microplate Spectrophotometer (Bio Tek Instruments) set at 450 nm.
Supplementary Figure S2. […] Error bars indicate standard error of the mean. […] Log c, log concentration.

[2] = system: SCW-induced ankle inflammation in female Lewis rats; experiment: Rat streptococcal cell wall (SCW) model of joint inflammation; assay type: in vivo
Experimental: Female Lewis rats (150–200 g, Charles River, United Kingdom) were used for the model of joint inflammation (see Supplementary Material for animal care), with in vivo efficacy assays conducted at the Saretius Ltd., Science and Technology Centre (Reading, United Kingdom). Monoarticular joint inflammation was induced on Day −21 by intra-articular injection of 10 μg of streptococcal cell wall (SCW) extract (Lee Laboratories, BD Scientific, Franklin Lakes, NJ, United States) into the left hind ankle joint. […] Treatments, including control, were administered orally once daily on Days −1 to 6 of the study. Additionally, on Day 0, each rat received an intravenous (IV) dose of 100 μg SCW extract 2 h after oral dosing. IV injections were given after rats had spent up to 10 min in a 40°C hot box (Thermacage MK2, Datesand Ltd., Manchester, United Kingdom).
Rat ankle diameters were measured using digital calipers (Mitutoyo, United Kingdom, Model: CDS6CX), mechanical allodynia tested using von Frey hairs, and rats weighed, per the schedule in Supplementary Table S2. […] On Day 6, rats were euthanized by a schedule 1 method (carbon dioxide) and terminal blood samples collected by cardiac puncture. After centrifugation to obtain plasma supernatant (10,000 rpm, 3 min), plasma was stored at −20°C until analysis. […] Glucose test strips (Roche Accu-Check with Aviva blood glucose system meter) were used to measure blood glucose levels at the time blood was drawn. All data were analyzed with Statistica v11 software (StatSoft Inc., Tulsa, OK, United States), using the Kolmogorov-Smirnov test to assess normality of distribution (see Supplementary Material for further detail), and to determine total area under the concentration-time curve (AUC) using the trapezoidal method. […] The effect of each treatment on ankle inflammation was determined by the reduction in ipsilateral ankle AUC versus control.
Data that was not normally distributed were analyzed with Kruskal-Wallis analysis of variance (ANOVA) followed by Dunn’s multiple comparisons tests. Normally distributed data were analyzed with repeated measures ANOVAs as appropriate, one-way ANOVAs and Dunnett’s post hoc tests.

GR transactivation, mean activation (efficacy) (human GR): 80.5% and 80.5 ± 2.2% | IC50 ([1]; Homo sapiens): 3.1 ± 4.3 nM | change in blood glucose AUC2.5–24h versus vehicle ([2]; Day 5, GRM-01 any dose 0.01–1 mg/kg/day, prednisolone 30 mg/kg/day): statistically significant increase
Structure (SMILES): C[C@]12C=CC(=O)C=C1CC[C@@H]1[C@@H]2[C@@H](O)C[C@@]2(C)[C@H]1CC[C@]2(O)C(=O)CO [Prednisolone]
Inhibition of OPG release (maximal level) [1]: 100 ± 0% | Inhibition of OPG release (maximal level) ([1]; listed as prednisolone): fully inhibiting OPG release | blood glucose at time points post dose versus vehicle ([2]; Day 5, GRM-01 at 2.5 h, all doses except 0.03 mg/kg/day, not dose dependent, prednisolone 30 mg/kg/day at 2.5, 4 and 6 h): significantly higher blood glucose levels | effect on plasma corticosterone levels vs vehicle ([2]; Day 6, GRM-01 significant at 0.3 mg/kg/day (p < 0.01), prednisolone 30 mg/kg/day (p < 0.01)): reduced plasma corticosterone levels | antinociceptive effect (ipsilateral paw withdrawal threshold vs vehicle) ([2]; GRM-01 0.1, 0.3, 1 mg/kg/day, prednisolone 30 mg/kg/day): demonstrated an antinociceptive effect | ED50 ([2]; rat SCW model, separate and independent study, doses 0.003–30 mg/kg, read-out: ED50, change in AUC of ankle diameter): 2.49 mg/kg
